PMC11056381, “Characterization and evaluation of cytotoxic and antimicrobial activities of cyclotides from Viola japonica” (Scientific Reports, 2024)
In brackets after ≈: the same amount, converted by molar mass. Residues, ends and D or L forms follow the SMILES beside them.

Assays:
[1] = system: A549 (human non-small cell lung cancer cells); assay: MTT cytotoxicity assay; format: cell-based; conditions: 48 h incubation, mean ± SD of at least three repeats
Method: (§1) Five types of cells, namely A549 (human non-small cell lung cancer cells), T24 (human bladder cancer cells), 4T1 (mouse breast cancer cells), 7402 (human hepatocellular carcinoma cells), and THLE-3 (human hepatocytes cells), are selected for evaluating the cytotoxicity of viba 11, cycloviolacin O2, and vija 10 using the MTT (3-(4,5-dimethylthiazol-2-yl)-2,5-diphenyltetrazolium bromide) reagent.
(§2) To determine cell toxicity using MTT assay, cells are seeded in a 96-well plate and cultured for 24 h. After that, different concentrations of cyclotides are added to the cells and incubated for 48 h. MTT is then added to react with the cells, and after 4 h, the reaction is terminated by discarding the supernatant and adding dimethyl sulfoxide for resuspension. The absorbance at 570 nm is measured after 10 min of shaking at room temperature. Each test was performed three times at least. The data were analyzed using GraphPad Prism 8. During this process, the drug concentrations were transformed into logarithmic form with a base of 10 and plotted on the x-axis. Cell viability (%) = [A (cyclotides) − A (blank)]/[A (control) − A (blank)] × 100, which was represented on the y-axis. Using this method, we determined the IC50 value for each experiment, with each experiment repeated at least three times and the mean value calculated. The error was represented by the standard deviation of the IC50 obtained from three repetitions.

[2] = system: 4T1 (mouse breast cancer cells); assay: MTT cytotoxicity assay; format: cell-based; conditions: 4T1 cells, 48 h incubation, mean ± SD of at least three repeats
Method: as §1, §2

[3] = system: THLE-3 (human hepatocytes cells); assay: MTT cytotoxicity assay; format: cell-based; conditions: THLE-3 cells, 48 h incubation, mean ± SD of at least three repeats
Method: as §1, §2

[4] = system: T24 (human bladder cancer cells); assay: MTT cytotoxicity assay; format: cell-based; conditions: 48 h incubation, mean ± SD of at least three repeats
Method: as §1, §2

[5] = system: 7402 (human hepatocellular carcinoma cells); assay: MTT cytotoxicity assay; format: cell-based; conditions: 7402 cells, 48 h incubation, mean ± SD of at least three repeats
Method: as §1, §2

[6] = system: Bacillus subtilis (CMCC(B)63501); assay: microbe, parasite or virus in culture; conditions: 10^6 CFU/ml, 96-well plate, overnight 37 °C, visual clarity, performed at least three times
Text: (§3) Viba 11, originally discovered in Viola baoshanensis[39] and found in other plants such as Viola tricolor[40], Viola betonicifolia, and Viola philippica, lacks biological activity studies. […] All purified cyclotides underwent antibacterial testing against Gram-positive bacterium Staphylococcus aureus (CMCC(B)26003-2-10) and Bacillus subtilis (CMCC(B)63501), Gram-negative bacteria, including Acinetobacter baumannii (ATCC19606), Escherichia coli (CMCC(B)44102-2-6), and Salmonella paratyphi (CMCC(B)50094-2-9).
(§4) Bacterial fluids are cultured overnight at 37 °C. The next day, the bacterial liquids are diluted to a concentration of 10^6 CFU/ml. Prepare different concentrations of cyclotide drugs and kanamycin sulfate in advance, and sequentially add the drugs and bacterial liquid to the 96-well plate. Negative controls consisted of sterile water and bacterial liquid. The plate is cultured overnight at 37 °C and observe whether the solution remains clear to see the growth of the bacterial suspension. Each test was performed three times at least.

[7] = system: Escherichia coli (CMCC(B)44102-2-6); assay: microbe, parasite or virus in culture; conditions: 10^6 CFU/ml, 96-well plate, overnight 37 °C, visual clarity, performed at least three times
Text: as §3, §4

[8] = system: Acinetobacter baumannii (ATCC19606); assay: microbe, parasite or virus in culture; conditions: Acinetobacter baumannii ATCC19606; 10^6 CFU/ml, 96-well plate, overnight 37 °C, visual clarity; performed at least three times
Text: as §3, §4

[9] = system: Acinetobacter baumannii; assay: DAPI/PI staining, laser scanning confocal microscopy (membrane integrity); format: cell-based; conditions: A. baumannii 10^8 CFU/mL, 37 °C, 1-2 h, DAPI and PI staining
Text: Many naturally occurring antimicrobial peptides (AMPs) are cationic. Cationic AMPs (CAMPs) exert bactericidal activity by mechanisms featuring cell membrane disruption. Cyclotides are likely to kill germ by disrupting their membranes. Laser scanning confocal microscopy can be used to study the ability of cyclotides to destroy bacterial membrane. 4′, 6-diaminyl-2-phenylindole (DAPI) is a blue fluorescent dye that can penetrate membranes and stain both living and dead strains, while propyl iodide (PI) stains only strains with damaged membranes, glowing red[46],[47]. In this study, the bracelet cyclotide family members viba 11 and vija 10 interacted with A. baumannii and B. subtilis in their logarithmic phase at 37 °C for 1–2 h. After the addition of DAPI and PI fluorescent dyes, the samples were incubated in a dark room at room temperature for 15 min for staining. The stained samples were then centrifuged to concentrate, resuspended, and applied to a slide for observation using a confocal laser scanning microscope (FLUOVIEW FV3000, Olympus). […] With increasing concentration, the blue and red fluorescence gradually overlapped. […] However, the magnification is not sufficient to detect further details of membrane disruption. Therefore, further exploration can be conducted using methods such as scanning electron microscopy (SEM) to study the antibacterial mechanism in depth.
Figure 5 Study on the antimicrobial mechanism of cyclotides. (A) Incubation of Acinetobacter baumannii with sterile water, 1 MIC and 4 MIC of viba 11. (B) Incubation of Bacillus subtilis with sterile water, 1 MIC and 4 MIC of vija 10. All samples were stained with DAPI and PI. The negative control group PI is not stained and the membrane is intact, while the membrane treated with cyclotides was stained and the membrane are destroyed. Scale bar: 20 μm. Magnification: 600×.
Take 50 μL of A. baumannii and B. subtilis (10^8 CFU/mL), and add 50 μL of sterile water, different concentrations of cyclotides viba 11 and vija 10 to achieve final concentrations of 1 MIC and 4 MIC respectively. Incubate at 37 °C for 1–2 h. Subsequently, add 4,6-diamino-2-phenylindole (DAPI) and propidium iodide (PI) dyes at 20 μg/mL each, and incubate in the dark for 15 min. Centrifuge at 5000 rpm for 3 min to concentrate, discard the majority of the supernatant, and resuspend the bacteria in the remaining small volume of liquid. Mix well and take 10 μL of the stained sample onto a glass slide, gently place a cover slip on top with forceps, avoiding the formation of bubbles during the pressing process. After sealing the cover slip, check with a laser confocal microscope, and the observation was conducted using an objective lens with the maximum magnification of 60 × . […]

[10] = system: Salmonella paratyphi (CMCC(B)50094-2-9); assay: MIC, broth dilution in 96-well plate; format: cell-based; conditions: 10^6 CFU/ml, overnight 37 °C, visual clarity, performed at least three times
Text: (§5) Cycloviolacin O2, known for its antimicrobial, hemolytic, and insecticidal activities, has been more extensively investigated[4],[20],[36]–[38]. Viba 11, originally discovered in Viola baoshanensis[39] and found in other plants such as Viola tricolor[40], Viola betonicifolia, and Viola philippica, lacks biological activity studies. These two cyclotides and vija 10 are high in content and easy to purify, and cycloviolacin O2 can also be used as a positive control to conduct activity study. In addition, few vija12 and 31 were extracted for antibacterial experiments. All purified cyclotides underwent antibacterial testing against Gram-positive bacterium Staphylococcus aureus (CMCC(B)26003-2-10) and Bacillus subtilis (CMCC(B)63501), Gram-negative bacteria, including Acinetobacter baumannii (ATCC19606), Escherichia coli (CMCC(B)44102-2-6), and Salmonella paratyphi (CMCC(B)50094-2-9). […] In addition, the MICs of viba 11, cycloviolacin O2 and vija 10 against B. subtilis were respectively 5.4 μM, 2.1 μM and 14.3 μM (Table 1). […] Therefore, it is hypothesized that the lower antimicrobial activity of vija 10 may be attributed to the presence of only one Lys residue in loop 5.
as §4

[11] = system: Staphylococcus aureus (CMCC(B)26003-2-10); assay: MIC, broth dilution in 96-well plate; format: cell-based; conditions: 10^6 CFU/ml, overnight 37 °C, visual clarity, performed at least three times
Text: as §5, §4

[12] = system: Acinetobacter baumannii; assay: Time killing kinetics; format: cell-based; conditions: about 10^6 CFU/mL, LB, 37 °C, colony count
Method: In this study, we investigated the time-kill kinetics characteristics of plant cyclotides against bacteria. […] It is worth noting that due to experimental constraints, there was a slight discrepancy of a few minutes between theoretical 0 h and actual 0 h. […] Furthermore, we also conducted time-kill kinetics studies using vija 10 against B. subtilis.
Figure 4 (A) The Acinetobacter baumannii time killing kinetics of cycloviolacin O2 at concentration of 1 MIC, 2 MIC, 4 MIC and 8 MIC at 37 °C. (B) The Bacillus subtilis time killing kinetics of vija 10 at concentration of 1 MIC, 2 MIC, 4 MIC at 37 °C. Each test was performed three times at least.
Incubate A. baumannii and B. subtilis in fresh nutrient LB broth at 37 °C until logarithmic growth stage, then dilute to approximately 10^6 CFU/mL, and incubate with cycloviolacin O2 at concentrations of 1 MIC, 2 MIC, 4 MIC, 8 MIC with A. baumannii and vija 10 at concentrations of 1 MIC, 2 MIC, 4 MIC with B. subtilis respectively. Taking the mixture at time points of 0 h, 0.5 h, 1 h, 1.5 h and 2 h, dilute and coat it to solid medium for 24 h. Count the number of colonies on solid culture medium. Each test was performed three times at least. Plotting a line graph with time on the x-axis and bacterial survival on the y-axis using GraphPad Prism 8. Statistical analysis of bacterial viability at different time points to determine the bactericidal and bacteriostatic effects of cyclotides.

Compound	IC50 [1]	IC50 [2]	IC50 [3]	IC50 [4]	IC50 [5]	MIC [6]	MIC [7]	MIC [8]	membrane integrity (PI red fluorescence) ([9]; 1 MIC)	membrane integrity (PI red fluorescence) ([9]; 4 MIC)	MIC [10]	MIC [11]	time of treatment to complete eradication of A. baumannii ([12]; 4 MIC)	time of treatment to complete eradication of A. baumannii ([12]; 8 MIC)
CC[C@H](C)[C@@H]1NC(=O)[C@H](C)NC(=O)CNC(=O)[C@H](CO)NC(=O)[C@H]([C@@H](C)CC)NC(=O)[C@@H]2CSSC[C@@H]3NC(=O)[C@H](C(C)C)NC(=O)[C@H](CCCCN)NC(=O)[C@H](CO)NC(=O)[C@H](CCCCN)NC(=O)[C@@H]4CSSC[C@H](NC(=O)[C@H](CO)NC(=O)[C@H](CCC(=O)O)NC(=O)CNC(=O)[C@H](CSSC[C@H](NC(=O)CNC1=O)C(=O)N[C@@H](CO)C(=O)N4)NC(=O)[C@@H]1CCCN1C(=O)[C@H]([C@@H](C)CC)NC(=O)CNC(=O)[C@H](CC(N)=O)NC(=O)[C@H](CCCNC(=N)N)NC(=O)[C@H](Cc1ccc(O)cc1)NC3=O)C(=O)N[C@@H](C(C)C)C(=O)N[C@@H](Cc1c[nH]c3ccccc13)C(=O)N[C@@H]([C@@H](C)CC)C(=O)N1CCC[C@H]1C(=O)N2 [viba 11] (HELM PEPTIDE1{A.I.G.C.S.C.K.S.K.V.C.Y.R.N.G.I.P.C.G.E.S.C.V.W.I.P.C.I.S.G}$PEPTIDE1,PEPTIDE1,4:R3-18:R3|PEPTIDE1,PEPTIDE1,6:R3-22:R3|PEPTIDE1,PEPTIDE1,11:R3-27:R3|PEPTIDE1,PEPTIDE1,1:R1-30:R2$$$V2.0)	195 ± 90 nM	285 ± 10 nM	1609 ± 10 nM	724 ± 170 nM	1700 ± 50 nM	5.4 µM (≈ 16.8 µg/mL)	> 21.6 µM	10.8 µM (≈ 33.6 µg/mL)	caused damage to the membrane integrity	majority of the cell membranes were ruptured	> 21.6 µM	> 21.6 µM		
CC[C@H](C)[C@@H]1NC(=O)[C@H](C)NC(=O)[C@H](CO)NC(=O)[C@H](CO)NC(=O)[C@H]([C@@H](C)CC)NC(=O)[C@@H]2CSSC[C@@H]3NC(=O)[C@H](C(C)C)NC(=O)[C@H](CCCCN)NC(=O)[C@H](CO)NC(=O)[C@H](CCCCN)NC(=O)[C@@H]4CSSC[C@H](NC(=O)[C@H](CO)NC(=O)[C@H](CCC(=O)O)NC(=O)CNC(=O)[C@H](CSSC[C@H](NC(=O)CNC1=O)C(=O)N[C@@H](CO)C(=O)N4)NC(=O)[C@@H]1CCCN1C(=O)[C@H]([C@@H](C)CC)NC(=O)CNC(=O)[C@H](CC(N)=O)NC(=O)[C@H](CCCNC(=N)N)NC(=O)[C@H](Cc1ccc(O)cc1)NC3=O)C(=O)N[C@@H](C(C)C)C(=O)N[C@@H](Cc1c[nH]c3ccccc13)C(=O)N[C@@H]([C@@H](C)CC)C(=O)N1CCC[C@H]1C(=O)N2 [cycloviolacin O2, reference compound] (HELM PEPTIDE1{A.I.G.C.S.C.K.S.K.V.C.Y.R.N.G.I.P.C.G.E.S.C.V.W.I.P.C.I.S.S}$PEPTIDE1,PEPTIDE1,4:R3-18:R3|PEPTIDE1,PEPTIDE1,6:R3-22:R3|PEPTIDE1,PEPTIDE1,11:R3-27:R3|PEPTIDE1,PEPTIDE1,1:R1-30:R2$$$V2.0)	149 ± 30 nM	162 ± 10 nM	1210 ± 50 nM	1690 ± 160 nM	1332 ± 10 nM	2.1 µM (≈ 6.6 µg/mL)	> 16.8 µM	4.2 µM (≈ 13.2 µg/mL)			> 16.8 µM	> 16.8 µM	2 h	1.5 h
